Key:
[1] = tested on: primary human corneal epithelial cells; assay: IL-1β-stimulated cytokine production in primary HCECs (30-cytokine Luminex kit)
Protocol: Primary HCECs were seeded in 24-well plates. […] Each treatment was performed in triplicate. Media were collected and used for determination of cytokine content using a 30-cytokine Luminex kit. Cell viability was determined by alamarBlue assay (LP06013).
Median fluorescence intensity (MFI) was used to obtain the concentration of each cytokines in pg/ml based on the standard curve of each cytokine assayed by Luminex. The linear range of the standard curve for each cytokine was used for determination of cytokine concentration. Duplicate values for each sample were averaged. Data were expressed as mean±SD. Statistical analysis was performed using one-way ANOVA-Dunnett's test, and P<0.05 was considered statistically significant.

[2] = tested on: New Zealand White rabbits; assay: Intraocular pressure (IOP) in rabbits, topical dosing four times daily; format: in vivo; conditions: for Intraocular Pressure (MEAN): treated right eyes, A.M. readings
Protocol: Seventy-five rabbits underwent two weeks of IOP training to condition them for IOP measurement. IOP was determined for both eyes of each animal using a Medtronic Solan, Model 30 classic pneumatonometer. Proparacaine hydrochloride 0.5% (1 drop) was delivered to each eye prior to IOP measurement. A two-point diurnal curve was established: IOP was recorded on Monday, Wednesday, and Friday of each week, at 8 a.m. and 12 p.m., with a ±1 hour range for each of these times. The time of the measurements was recorded.
On Days 1-31, animals received daily topical doses of the appropriate test article into the right eye. Animals were dosed four times per day, with doses administered 2 hours apart. Doses were administered using a calibrated 50-μL pipette. The eyelids were held close for 10 seconds immediately following dosing. The time of each dose administration was recorded.
Intraocular pressure (“IOP”) was determined for both eyes of each animal on Days 3, 5, 10, 12, 16, 18, 22, 24, 26, 30, and 32. IOP was evaluated with a Medtronic Solan, Model 30 classic pneumatonometer. Proparacaine hydrochloride 0.5% (1 drop) was delivered to each eye prior to IOP measurement. IOP was measured on Monday, Wednesday, and Friday of each week. A two-point diurnal curve was established: IOP was recorded at 8 a.m. and 12 p.m. on Day 3, and at 8 a.m. and 2 p.m. on later days, with a ±1 hour range for each of these times. The time of the measurements was recorded.
Descriptive statistics were prepared for IOP data of each treatment group (left and right eyes separately) at each measurement interval. The statistics included the number of observations (“N”), mean, standard deviation (“STD”), and standard error (“SEM”). Statistical analyses were conducted on IOP results using Statistical Analysis Systems (SAS Institute, Inc., Cary, N.C., V8.0). Parameters were evaluated using analysis of variance/GLM Procedure followed by Tukey's Standardized Range Test (Tukey, 1985) for post hoc comparisons of group means. The level of significance was set at a probability of p<0.05 for all statistical procedures. Group IOP means were compared at each interval, with left and right eyes compared separately.

[3] = 10 ng/ml IL-1β-stimulated HCECs, 18 h, P<0.05
[4] = IL-1β-stimulated HCECs, 18 h, P<0.05

## Cc1ccc2c(NCC(O)(CC(C)(C)c3cc(F)cc4c3OCC4)C(F)(F)F)cccc2n1 (centres unmarked)
[1]; [3]
  Concentration at which a significant inhibitory effect was observed on IL-6: 1 nM
  Concentration at which a significant inhibitory effect was observed on MCP-1: 10 nM
  Concentration at which a significant inhibitory effect was observed on TGF-α: 10 nM
  Concentration at which a significant inhibitory effect was observed on TNF-α: 10 nM
[1]; IL-1β-stimulated HCECs
  Potency versus dexamethasone for inhibition of G-CSF production: more potent than dexamethasone
  Potency versus dexamethasone for inhibition of GM-CSF, IL-8 and RANTES production: somewhat less potent than dexamethasone
  Potency versus dexamethasone for inhibition of IL-6, IL-7, TGF-α, TNF-α, VGEF and MCP-1 production: comparable potency
[1]; IL-1β-stimulated HCECs, 18 h
  Inhibition of IL-1β-stimulated production of 6 cytokines (IL-6, IL-7, MCP-1, TGF-α, TNF-α and VEGF): significantly inhibited
[1]; [4]
  Concentration at which a significant inhibitory effect was observed on G-CSF: 10 µg/mL
  Concentration at which a significant inhibitory effect was observed on GM-CSF: 10 nM
  Concentration at which a significant inhibitory effect was observed on RANTES: no significant effect
[2]; 1 mg/g (Group D), Day 3
  Intraocular Pressure in Untreated Left Eyes (A.M. Readings), MEAN: 23.5 mmHg
[2]; 1 mg/g (Group D), Day 5
  Intraocular Pressure in Untreated Left Eyes (A.M. Readings), MEAN: 24.4 mmHg
[2]; 1 mg/g (Group D), Day 10
  Intraocular Pressure in Untreated Left Eyes (A.M. Readings), MEAN: 24.5 mmHg
[2]; 1 mg/g (Group D), Day 12
  Intraocular Pressure in Untreated Left Eyes (A.M. Readings), MEAN: 22.2 mmHg
[2]; 1 mg/g (Group D), Day 16
  Intraocular Pressure in Untreated Left Eyes (A.M. Readings), MEAN: 21.6 mmHg
[2]; 1 mg/g (Group D), Day 18
  Intraocular Pressure in Untreated Left Eyes (A.M. Readings), MEAN: 23.3 mmHg
[2]; 1 mg/g (Group D), Day 22
  Intraocular Pressure in Untreated Left Eyes (A.M. Readings), MEAN: 22.4 mmHg
[2]; 1 mg/g (Group D), Day 24
  Intraocular Pressure in Untreated Left Eyes (A.M. Readings), MEAN: 22.4 mmHg
[2]; 1 mg/g (Group D), Day 26
  Intraocular Pressure in Untreated Left Eyes (A.M. Readings), MEAN: 22.9 mmHg
[2]; 1 mg/g (Group D), Day 30
  Intraocular Pressure in Untreated Left Eyes (A.M. Readings), MEAN: 23.4 mmHg
[2]; 1 mg/g (Group D), Day 32
  Intraocular Pressure in Untreated Left Eyes (A.M. Readings), MEAN: 24.1 mmHg
[2]; 1 mg/g (Group D), Pre-Study
  Intraocular Pressure in Untreated Left Eyes (A.M. Readings), MEAN: 23.9 mmHg
[2]; 5 mg/g (Group C), Day 3
  Intraocular Pressure in Untreated Left Eyes (A.M. Readings), MEAN: 23.8 mmHg
[2]; 5 mg/g (Group C), Day 5
  Intraocular Pressure in Untreated Left Eyes (A.M. Readings), MEAN: 24.4 mmHg
[2]; 5 mg/g (Group C), Day 10
  Intraocular Pressure in Untreated Left Eyes (A.M. Readings), MEAN: 24.6 mmHg
[2]; 5 mg/g (Group C), Day 12
  Intraocular Pressure in Untreated Left Eyes (A.M. Readings), MEAN: 23.8 mmHg
[2]; 5 mg/g (Group C), Day 16
  Intraocular Pressure in Untreated Left Eyes (A.M. Readings), MEAN: 23.4 mmHg
[2]; 5 mg/g (Group C), Day 18
  Intraocular Pressure in Untreated Left Eyes (A.M. Readings), MEAN: 21.9 mmHg
[2]; 5 mg/g (Group C), Day 22
  Intraocular Pressure in Untreated Left Eyes (A.M. Readings), MEAN: 21.6 mmHg
[2]; 5 mg/g (Group C), Day 24
  Intraocular Pressure in Untreated Left Eyes (A.M. Readings), MEAN: 22.1 mmHg
[2]; 5 mg/g (Group C), Day 26
  Intraocular Pressure in Untreated Left Eyes (A.M. Readings), MEAN: 21.7 mmHg
[2]; 5 mg/g (Group C), Day 30
  Intraocular Pressure in Untreated Left Eyes (A.M. Readings), MEAN: 22.6 mmHg
[2]; 5 mg/g (Group C), Day 32
  Intraocular Pressure in Untreated Left Eyes (A.M. Readings), MEAN: 23.1 mmHg
[2]; 5 mg/g (Group C), Pre-Study
  Intraocular Pressure in Untreated Left Eyes (A.M. Readings), MEAN: 24.2 mmHg
[2]; 10 mg/g (Group B), Day 3
  Intraocular Pressure in Untreated Left Eyes (A.M. Readings), MEAN: 23.3 mmHg
[2]; 10 mg/g (Group B), Day 5
  Intraocular Pressure in Untreated Left Eyes (A.M. Readings), MEAN: 23.4 mmHg
[2]; 10 mg/g (Group B), Day 10
  Intraocular Pressure in Untreated Left Eyes (A.M. Readings), MEAN: 24.0 mmHg
[2]; 10 mg/g (Group B), Day 12
  Intraocular Pressure in Untreated Left Eyes (A.M. Readings), MEAN: 23.8 mmHg
[2]; 10 mg/g (Group B), Day 16
  Intraocular Pressure in Untreated Left Eyes (A.M. Readings), MEAN: 22.9 mmHg
[2]; 10 mg/g (Group B), Day 18
  Intraocular Pressure in Untreated Left Eyes (A.M. Readings), MEAN: 21.2 mmHg
[2]; 10 mg/g (Group B), Day 22
  Intraocular Pressure in Untreated Left Eyes (A.M. Readings), MEAN: 21.8 mmHg
[2]; 10 mg/g (Group B), Day 24
  Intraocular Pressure in Untreated Left Eyes (A.M. Readings), MEAN: 20.2 mmHg
[2]; 10 mg/g (Group B), Day 26
  Intraocular Pressure in Untreated Left Eyes (A.M. Readings), MEAN: 21.7 mmHg
[2]; 10 mg/g (Group B), Day 30
  Intraocular Pressure in Untreated Left Eyes (A.M. Readings), MEAN: 22.7 mmHg
[2]; 10 mg/g (Group B), Day 32
  Intraocular Pressure in Untreated Left Eyes (A.M. Readings), MEAN: 22.9 mmHg
[2]; 10 mg/g (Group B), Pre-Study
  Intraocular Pressure in Untreated Left Eyes (A.M. Readings), MEAN: 23.8 mmHg
[2]; Day 3, 1 mg/g (Group D)
  Intraocular Pressure (MEAN): 23.0 mmHg
[2]; Day 3, 5 mg/g (Group C)
  Intraocular Pressure (MEAN): 23.7 mmHg
[2]; Day 3, 10 mg/g (Group B)
  Intraocular Pressure (MEAN): 22.7 mmHg
[2]; Day 5, 1 mg/g (Group D)
  Intraocular Pressure (MEAN): 24.7 mmHg
[2]; Day 5, 5 mg/g (Group C)
  Intraocular Pressure (MEAN): 24.7 mmHg
[2]; Day 5, 10 mg/g (Group B)
  Intraocular Pressure (MEAN): 23.8 mmHg
[2]; Day 10, 1 mg/g (Group D)
  Intraocular Pressure (MEAN): 24.8 mmHg
[2]; Day 10, 5 mg/g (Group C)
  Intraocular Pressure (MEAN): 25.2 mmHg
[2]; Day 10, 10 mg/g (Group B)
  Intraocular Pressure (MEAN): 24.5 mmHg
[2]; Day 12, 1 mg/g (Group D)
  Intraocular Pressure (MEAN): 23.4 mmHg
[2]; Day 12, 5 mg/g (Group C)
  Intraocular Pressure (MEAN): 25.0 mmHg
[2]; Day 12, 10 mg/g (Group B)
  Intraocular Pressure (MEAN): 23.9 mmHg
[2]; Day 16, 1 mg/g (Group D)
  Intraocular Pressure (MEAN): 22.1 mmHg
[2]; Day 16, 5 mg/g (Group C)
  Intraocular Pressure (MEAN): 24.3 mmHg
[2]; Day 16, 10 mg/g (Group B)
  Intraocular Pressure (MEAN): 23.4 mmHg
[2]; Day 18, 1 mg/g (Group D)
  Intraocular Pressure (MEAN): 23.7 mmHg
[2]; Day 18, 5 mg/g (Group C)
  Intraocular Pressure (MEAN): 23.9 mmHg
[2]; Day 18, 10 mg/g (Group B)
  Intraocular Pressure (MEAN): 22.3 mmHg
[2]; Day 22, 1 mg/g (Group D)
  Intraocular Pressure (MEAN): 23.2 mmHg
[2]; Day 22, 5 mg/g (Group C)
  Intraocular Pressure (MEAN): 22.4 mmHg
[2]; Day 22, 10 mg/g (Group B)
  Intraocular Pressure (MEAN): 22.4 mmHg
[2]; Day 24, 1 mg/g (Group D)
  Intraocular Pressure (MEAN): 22.1 mmHg
[2]; Day 24, 5 mg/g (Group C)
  Intraocular Pressure (MEAN): 23.8 mmHg
[2]; Day 24, 10 mg/g (Group B)
  Intraocular Pressure (MEAN): 21.2 mmHg
[2]; Day 26, 1 mg/g (Group D)
  Intraocular Pressure (MEAN): 23.1 mmHg
[2]; Day 26, 5 mg/g (Group C)
  Intraocular Pressure (MEAN): 22.1 mmHg
[2]; Day 26, 10 mg/g (Group B)
  Intraocular Pressure (MEAN): 21.8 mmHg
[2]; Day 30, 1 mg/g (Group D)
  Intraocular Pressure (MEAN): 24.2 mmHg
[2]; Day 30, 5 mg/g (Group C)
  Intraocular Pressure (MEAN): 22.9 mmHg
[2]; Day 30, 10 mg/g (Group B)
  Intraocular Pressure (MEAN): 22.7 mmHg
[2]; Day 32, 1 mg/g (Group D)
  Intraocular Pressure (MEAN): 24.9 mmHg
[2]; Day 32, 5 mg/g (Group C)
  Intraocular Pressure (MEAN): 23.4 mmHg
[2]; Day 32, 10 mg/g (Group B)
  Intraocular Pressure (MEAN): 23.9 mmHg
[2]; Pre-Study, 1 mg/g (Group D)
  Intraocular Pressure (MEAN): 24.4 mmHg
[2]; Pre-Study, 5 mg/g (Group C)
  Intraocular Pressure (MEAN): 24.8 mmHg
[2]; Pre-Study, 10 mg/g (Group B)
  Intraocular Pressure (MEAN): 24.0 mmHg
